Data published in patent US6407103B2, “Indeno [1,2-c] pyrazol-4-ones and their uses” (Bristol-Myers Squibb Pharma Company, priority 1998, dated 2002).
Structures can show the parent of a compound that is named as a salt.

melting point [°C] | Compound
277 | COc1ccc(-c2[nH]nc3c2C(=O)c2c(NC(=O)CN4CCNCC4)cccc2-3)cc1 [Example XXVI, 3-(4-methoxyphenyl)-5-(piperazinoacetamido)indeno[1,2-c]pyrazol-4-one]
228 | COc1ccc(-c2[nH]nc3c2C(=O)c2c(NC(=O)Cc4ccc(NC(=O)CN)cc4)cccc2-3)cc1 [Example XXXVIII, 3-(4-methoxyphenyl)-5-((4-(aminomethylcarbonylamino)phenyl)acetamido) indeno[1,2-c]pyrazol-4-one]
237 | C[C@@H]1CN(c2ccc(-c3[nH]nc4c3C(=O)c3c(NC(=O)NN5CCOCC5)cccc3-4)cc2)C[C@H](C)N1 (as salt: TFA) [Example CCXXXVIII, 3-(4-(cis-3,5-dimethylpiperazino)phenyl)-5-(morpholinocarbamoylamino)indeno[1,2-c]pyrazol-4-one]
297 | COc1ccc(-c2[nH]nc3c2C(=O)c2c(NC(=O)Cc4ccc5c(c4)OCO5)cccc2-3)cc1 (hydrate or solvate) [Example XVII, 3-(4-methoxyphenyl)-5-((3,4-methylenedioxyphenyl)acetamido)indeno[1,2-c]pyrazol-4-one]
> 300 | CN1CCN(NC(=O)Nc2cccc3c2C(=O)c2c-3n[nH]c2-c2ccc(N(C)C)cc2)CC1 [Example LXXXV, 3-(4-(N,N-dimethylamino)phenyl)-5-(4-methylpiperazinocarbamoylamino)indeno[1,2-c]pyrazol-4-one]
298 | COc1ccc(-c2[nH]nc3c2C(=O)c2c(NC(=O)CN4CCSCC4)cccc2-3)cc1 [Example XXXII, 3-(4-methoxyphenyl)-5-(thiomorpholinoacetamido)indeno[1,2-c]pyrazol-4-one]
193 | O=C(Nc1cccc2c1C(=O)c1c-2n[nH]c1-c1ccc(N2CCNCC2)cc1)NN1CCC[C@@H]1CO (as salt: TFA) [Example CCXXXIII, 3-(4-piperazinophenyl)-5-((2(R)-(hydroxymethyl)pyrrolidino)carbamoylamino)indeno[1,2-c]pyrazol-4-one]
> 280 | Cc1cc(-c2[nH]nc3c2C(=O)c2c(NC(N)=O)cccc2-3)c(C)s1 [Example CII, 3-(2,5-dimethyl-3-thienyl)-5-(carbamoylamino)indeno[1,2-c]pyrazol-4-one]
267 | O=C(Nc1cccc2c1C(=O)c1c-2n[nH]c1-c1ccc(C(=O)N2CCC[C@H]2CO)s1)NN1CCOCC1 (as salt: TFA) [Example CLXXXV, 3-(5-(2(S)-(hydroxymethyl)pyrrolidinocarbonyl)-2-thienyl)-5-(morpholinocarbamoylamino)indeno[1,2-c]pyrazol-4-one]
283 | COc1ccc(-c2[nH]nc3c2C(=O)c2c(NC(=O)Cc4ccc(N)cc4)cccc2-3)cc1 [Example XLI, 3-(4-methoxyphenyl)-5-((4-aminophenyl)acetamido)indeno[1,2-c]pyrazol-4-one]
221 | COC(C)(C)[C@H]1CCCN1NC(=O)Nc1cccc2c1C(=O)c1c-2n[nH]c1-c1ccc(N2CCNCC2)cc1 (as salt: TFA) [Example CCXXXI, 3-(4-piperazinophenyl)-5-((2(R)-(1-methoxy-1-methylethyl)pyrrolidino)carbamoylamino)indeno[1,2-c]pyrazol-4-one]
278 | NC(=O)Nc1cccc2c1C(=O)c1c-2n[nH]c1-c1ccco1 [Example CIII, 3-(2-furanyl)-5-(carbamoylamino)indeno[1,2-c]pyrazol-4-one]
280 | COc1ccc(CC(=O)Nc2cccc3c2C(=O)c2c-3n[nH]c2-c2ccc(OC)cc2)cc1 [Example XII, 3-(4-methoxyphenyl)-5-((4-methoxyphenyl)acetamido)indeno[1,2-c]pyrazol-4-one]
> 300 | COc1ccc(-c2[nH]nc3c2C(=O)c2c(NC(=O)CN4CCN(C)CC4)cccc2-3)cc1 [Example XXVII, 3-(4-methoxyphenyl)-5-(4-methylpiperazinoacetamido)indeno[1,2-c]pyrazol-4-one]

The remaining lines, values behind:

Compound | melting point [°C]
NCCCCC(=O)N1CCC(c2[nH]nc3c2C(=O)c2c(NC(=O)NN4CCOCC4)cccc2-3)CC1 (as salt: TFA) [Example CCLXXVII, 3-(1-(4-aminobutylcarbonyl)piperidin-4-yl)-5-(morpholinocarbamoylamino)indeno[1,2-c]pyrazol-4-one] | 103
COC(=O)[C@H]1CC[C@H](c2[nH]nc3c2C(=O)c2c(NC(=O)NN4CCOCC4)cccc2-3)CC1 (as salt: TFA) [Example CCCI, 3-(trans-4-(methoxycarbonyl)cyclohexyl)-5-(morpholinocarbamoylamino)indeno[1,2-c]pyrazol-4-one] | 259
O=C(Nc1cccc2c1C(=O)c1c-2n[nH]c1C1CCN(C(=O)c2cccs2)CC1)NN1CCOCC1 (as salt: TFA) [Example CCLXV, 3-(1-(2-thienylcarbonyl)piperidin-4-yl)-5-(morpholinocarbamoylamino)indeno[1,2-c]pyrazol-4-one] | 218
NC(=O)N1CCC(c2[nH]nc3c2C(=O)c2c(NC(=O)NN4CCOCC4)cccc2-3)CC1 (as salt: TFA) [Example CCLXVI, 3-(1-carbamoylpiperidin-4-yl)-5-(morpholinocarbamoylamino)indeno[1,2-c]pyrazol-4-one] | 258
CN1CCCC(C(=O)N2CCC(c3[nH]nc4c3C(=O)c3c(NC(=O)NN5CCOCC5)cccc3-4)CC2)C1 (stereo not drawn) (as salt: TFA) [Example CCLXXXVIII, 3-(1-(1-methylpiperidin-3-ylcarbonyl)piperidin-4-yl)-5-(morpholinocarbamoylamino)indeno[1,2-c]pyrazol-4-one] | 158
CN1CCN(c2ccc(-c3[nH]nc4c3C(=O)c3c(NC(=O)NN(C)C)cccc3-4)cc2)CC1 (as salt: TFA) [Example CCXXII, 3-(4-(4-methylpiperazino)phenyl)-5-((N,N-dimethylamino)carbamoylamino)indeno[1,2-c]pyrazol-4-one] | 192
CN(C)c1ccc(C(=O)N2CCC(c3[nH]nc4c3C(=O)c3c(NC(=O)NN5CCOCC5)cccc3-4)CC2)cc1 (as salt: TFA) [Example CCXCVIII, 3-(1-(4-(dimethylamino)phenylcarbonyl)piperidin-4-yl)-5-(morpholinocarbamoylamino)indeno[1,2-c]pyrazol-4-one] | 189
O=C(Nc1cccc2c1C(=O)c1c-2n[nH]c1-c1ccc(C(=O)NC2CN3CCC2CC3)s1)NN1CCOCC1 (stereo not drawn) (as salt: TFA) | 245
CN(C)C1CCN(C(=O)N2CCC(c3[nH]nc4c3C(=O)c3c(NC(=O)NN5CCOCC5)cccc3-4)CC2)CC1 (as salt: TFA) [Example CCLXIX, 3-(1-(4-(dimethylamino)piperidinocarbonyl)piperidin-4-yl)-5-(morpholinocarbamoylamino)indeno[1,2-c]pyrazol-4-one] | 172
CC(C)(C)OC(=O)Nc1ccc(C(=O)N2CCC(c3[nH]nc4c3C(=O)c3c(NC(=O)NN5CCOCC5)cccc3-4)CC2)cc1 [Example CCXCIX, 3-(1-(4-(t-butoxycarbonylamino)phenylcarbonyl)piperidin-4-yl)-5-(morpholinocarbamoylamino)indeno[1,2-c]pyrazol-4-one] | 212
